Molecules are shown by their SMILES.

Data set [1] concerns MDA-MB-468. The experiment in a line: Antiproliferative activity, SRB assay. Type of data set: cell-based, human. The conditions noted are these: 72 hours of exposure; tested 5–625 μM. Background: In SRB staining, fixed cells bind dye roughly in proportion to their protein.
For data set [2] the following is noted: cited from earlier work.

`CC(C)Cc1ccc([C@H](C)C(=O)O)cc1` [DXI, dexibuprofen]: the “IC50 MDA-MB-468” value in data set [1] is reported as “did not express any cytotoxic effect”. Besides, the Water solubility in data set [2] is 68.4 µg/mL.

Values taken from article PMC12134470 (International Journal of Nanomedicine, 2025).
